One test deals with VEGFR-2 (Homo sapiens, UniProt P35968). In words: VEGFR-2 inhibition at a single concentration. Type of test: biochemical. The following applies: 10 μM concentration of test compound.
A further test has as its system 10 recombinant kinases. The conditions noted are these: 10 μM concentration.
For a further test, the system named is HepG2. Put plainly: growth inhibition of HepG2 liver carcinoma cells. Type of test: cell-based. The following applies: up to 100 μM.
The test system of the next test is Huh-7. In words: growth inhibition of Huh-7 liver carcinoma cells. The conditions noted are these: up to 100 μM. Type of test: cell-based.
For test [1], the system named is lipopolysaccharide-induced inflammation. The following applies: lipopolysaccharide-induced inflammation murine model; cited from earlier work.
The target of the next test is C-RAF (Homo sapiens, UniProt P04049). In words: C-RAF kinase inhibition. Type of test: biochemical. The conditions noted are these: compared with t-CUPM.
Sequence of C-RAF (P04049 whole entry): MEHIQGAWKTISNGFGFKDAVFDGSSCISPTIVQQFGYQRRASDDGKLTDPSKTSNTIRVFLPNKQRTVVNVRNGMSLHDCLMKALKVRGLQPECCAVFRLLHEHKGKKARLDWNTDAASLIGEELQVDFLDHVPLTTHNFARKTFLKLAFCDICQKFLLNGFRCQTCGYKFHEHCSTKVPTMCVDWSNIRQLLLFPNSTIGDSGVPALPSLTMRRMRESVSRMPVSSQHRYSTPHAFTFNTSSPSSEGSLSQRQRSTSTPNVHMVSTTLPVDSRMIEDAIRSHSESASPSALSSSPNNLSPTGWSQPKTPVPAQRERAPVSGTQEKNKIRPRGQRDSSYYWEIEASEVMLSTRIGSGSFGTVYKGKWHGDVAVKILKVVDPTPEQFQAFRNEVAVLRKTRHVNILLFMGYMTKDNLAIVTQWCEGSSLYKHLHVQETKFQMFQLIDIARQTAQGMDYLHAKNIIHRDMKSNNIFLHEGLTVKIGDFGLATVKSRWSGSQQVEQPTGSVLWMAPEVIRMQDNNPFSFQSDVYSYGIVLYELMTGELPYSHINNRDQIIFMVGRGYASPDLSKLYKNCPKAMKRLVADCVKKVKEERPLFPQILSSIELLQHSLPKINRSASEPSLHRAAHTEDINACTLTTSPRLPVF

Entries after “also recorded” stand apart in the source; their conditions may differ.

Sequence of VEGFR-2 (P35968 20-1356): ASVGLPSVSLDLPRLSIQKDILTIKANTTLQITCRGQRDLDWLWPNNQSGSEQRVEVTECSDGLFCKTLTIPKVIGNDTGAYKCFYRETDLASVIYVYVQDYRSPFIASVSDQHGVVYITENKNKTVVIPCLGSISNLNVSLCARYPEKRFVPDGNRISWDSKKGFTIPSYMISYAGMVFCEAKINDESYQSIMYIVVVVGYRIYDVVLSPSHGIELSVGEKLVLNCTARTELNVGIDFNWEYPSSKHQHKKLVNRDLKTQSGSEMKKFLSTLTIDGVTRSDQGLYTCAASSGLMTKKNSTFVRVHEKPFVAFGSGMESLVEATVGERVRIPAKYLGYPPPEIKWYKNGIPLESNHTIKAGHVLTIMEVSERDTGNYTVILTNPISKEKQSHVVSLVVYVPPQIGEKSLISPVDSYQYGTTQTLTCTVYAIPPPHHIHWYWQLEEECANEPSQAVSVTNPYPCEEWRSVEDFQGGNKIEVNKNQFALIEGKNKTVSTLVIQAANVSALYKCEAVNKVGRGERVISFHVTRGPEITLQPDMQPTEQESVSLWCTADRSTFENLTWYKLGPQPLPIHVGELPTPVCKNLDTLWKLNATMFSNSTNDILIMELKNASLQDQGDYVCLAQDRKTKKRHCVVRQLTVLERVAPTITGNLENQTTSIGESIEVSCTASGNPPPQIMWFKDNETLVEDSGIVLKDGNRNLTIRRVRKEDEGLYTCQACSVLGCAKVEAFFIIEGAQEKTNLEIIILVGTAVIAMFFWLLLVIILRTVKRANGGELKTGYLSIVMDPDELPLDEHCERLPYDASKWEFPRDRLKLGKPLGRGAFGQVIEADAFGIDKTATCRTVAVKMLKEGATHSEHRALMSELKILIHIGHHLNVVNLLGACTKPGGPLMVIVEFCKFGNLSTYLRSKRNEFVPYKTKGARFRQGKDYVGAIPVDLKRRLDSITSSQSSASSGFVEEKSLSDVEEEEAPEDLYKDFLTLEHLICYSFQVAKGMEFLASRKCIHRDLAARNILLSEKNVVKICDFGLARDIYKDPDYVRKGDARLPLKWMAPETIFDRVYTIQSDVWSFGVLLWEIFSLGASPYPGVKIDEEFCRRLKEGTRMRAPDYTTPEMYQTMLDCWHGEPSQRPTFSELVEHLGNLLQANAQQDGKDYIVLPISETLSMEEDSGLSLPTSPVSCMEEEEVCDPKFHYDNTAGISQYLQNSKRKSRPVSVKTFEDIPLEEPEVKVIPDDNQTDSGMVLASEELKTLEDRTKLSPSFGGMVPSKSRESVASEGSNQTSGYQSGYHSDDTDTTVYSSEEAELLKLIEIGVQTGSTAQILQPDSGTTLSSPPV

Regarding `CNC(=O)c1cc(O[C@H]2CC[C@H](NC(=O)Nc3ccc(Cl)c(C(F)(F)F)c3)CC2)ccn1` [compound 4, trans-4-{4-[3-(4-chloro-3-trifluoromethyl-phenyl)-ureido]-cyclohexyloxy}-pyridine-2-carboxylic acid methylamide], the “Percent inhibition against VEGFR-2 (in words)” value (from here on “Percent inhibition”) at VEGFR-2 is “displayed potency towards VEGFR-2”.

As to `CNC(=O)c1cccc(O[C@H]2CC[C@H](NC(=O)Nc3ccc(Cl)c(C(F)(F)F)c3)CC2)c1` [compound 8], on VEGFR-2 (10 µM), the “Percent inhibition” value was “little inhibitory activity; also recorded: lack of VEGFR-2 inhibition”.

For `O=C(Nc1ccc(OC(F)(F)F)cc1)N[C@H]1CC[C@H](Oc2ccc(C(=O)O)cc2)CC1` [compound 12, trans-4-{4-[3-(4-trifluoromethoxy-phenyl)-ureido]-cyclohexyloxy}-benzoic acid], the “multi-kinase inhibition (in words)” value in the test with 10 recombinant kinases is reported as “no significant multi-kinase inhibition”.

On to `CS(=O)(=O)N1CCC(NC(=O)Nc2ccc(OC(F)(F)F)cc2)CC1` [TUPS], for which the “effect on cell viability (in words)” value in the test with HepG2 and in the test with Huh-7 was “no observable effects on cell viability” throughout.

Consider `CNC(=O)c1cc(Oc2ccc(NC(=O)Nc3ccc(OC(F)(F)F)cc3)cc2)ccn1` [compound 22], for which, at VEGFR-2, the “Percent inhibition” value was “displayed potency towards VEGFR-2”.

Take `CNC(=O)c1cc(Oc2ccc(NC(=O)Nc3ccc(Cl)c(C(F)(F)F)c3)cc2)ccn1` [sorafenib]: the “anti-inflammatory response (in words)” value in test [1] is “exhibits similar anti-inflammatory responses as conventional sEH inhibitors”.

Turning to `CNC(=O)c1cc(O[C@H]2CC[C@@H](NC(=O)Nc3ccc(Cl)c(C(F)(F)F)c3)CC2)ccn1` [compound 17], the “Percent inhibition” value on VEGFR-2 is given as “lack of VEGFR-2 inhibition”.

As for `CNC(=O)c1cc(Oc2ccc(NC(=O)NC34CC5CC(CC(C5)C3)C4)cc2)ccn1` [compound 21], the “Percent inhibition” value at VEGFR-2 is “displayed potency towards VEGFR-2”.

As to `O=C(Nc1ccc(Cl)c(C(F)(F)F)c1)N[C@H]1CC[C@H](Oc2cccc(C(=O)O)c2)CC1` [compound 7, trans-3-{4-[3-(4-chloro-3-trifluoromethyl-phenyl)-ureido]-cyclohexyloxy}-benzoic acid], on VEGFR-2, the “Percent inhibition” value is on record as “lack of VEGFR-2 inhibition”.

For `CNC(=O)c1ccc(O[C@H]2CC[C@H](NC(=O)Nc3ccc(Cl)c(C(F)(F)F)c3)CC2)cn1` [compound 9], at C-RAF, the “fold less activity against C-RAF relative to t-CUPM” value came out at 2.3 fold. The “Percent inhibition” value on VEGFR-2 is “displayed potency towards VEGFR-2”.
